Laboratory results taken from patent US11542302B2, “Modulators of melanocortin receptors for the treatment of depression and anxiety” (ARIZONA BOARD OF REGENTS ON BEHALF OF THE UNIVERSITY OF …, priority 2015, dated 2023).

Target: hMC5R (Homo sapiens, UniProt P33032)
Experiment: hMC5R intracellular cAMP accumulation
Type: cell-based
Settings: relative to MT-II

hMC5R, sequence (P33032 whole entry): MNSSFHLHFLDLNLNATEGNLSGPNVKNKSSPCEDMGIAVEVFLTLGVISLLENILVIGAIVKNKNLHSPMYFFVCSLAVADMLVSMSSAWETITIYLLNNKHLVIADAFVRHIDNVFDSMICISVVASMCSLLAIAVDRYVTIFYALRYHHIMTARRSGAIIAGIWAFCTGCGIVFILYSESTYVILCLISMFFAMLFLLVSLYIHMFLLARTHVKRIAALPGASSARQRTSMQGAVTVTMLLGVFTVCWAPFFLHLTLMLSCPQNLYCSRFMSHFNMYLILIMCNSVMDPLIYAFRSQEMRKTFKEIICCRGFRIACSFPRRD

Q: Which “% Act at 10 μM (% of cAMP produced at 10 μM ligand concentration, in relation to MT-II)” value does the source give for `N=C(N)NCCC[C@@H]1NC(=O)[C@@H](Cc2ccccc2)NC(=O)[C@H](CC2CCCCC2)NC(=O)c2cc([N+](=O)[O-])ccc2SC[C@@H](C(N)=O)NC(=O)[C@H](Cc2c[nH]c3ccccc23)NC1=O` [compound 2] here?
A: 0%
